From patent US20050154032A1, “Methods of using zonisamide as an adjunctive therapy for partial seizures” (Eisai Co., Ltd, priority 2004, published 2005)

Key:
[1] = cited from earlier work; for hyperammonemia as adverse event: literature
[2] = system: GABA/benzodiazepine receptor ionophore complex; conditions: in vitro; cited from earlier work
carbonic anhydrase = conditions: fraction of acetazolamide inhibition; cited from earlier work
hepatic enzyme = conditions: cited from earlier work
[3] = system: dopaminergic and serotonergic neurotransmission; conditions: in vivo microdialysis; cited from earlier work
[4] = upon reaching a stable dose or following dosage adjustment; cited from earlier work
rat hippocampal slices = conditions: 10-30 μg/mL; cited from earlier work
sodium channels = conditions: in vitro; cited from earlier work
[5] = human, in vivo
Text: The pharmacovigilance data that were collected, reviewed and analyzed provided the following information in respect of the incidence of hyperammonemia. A total of 4 cases fulfilled the criteria of potential hyperammonemia cases. These cases were reviewed in detail for evaluation of possible safety signals. Two US cases were reported as either high ammonia levels or increased ammonia. Two Japanese cases were reported as hyperammonemia.
Of these, two (2) cases (both ZON1000262 and ZON1000346) had strong confounding factors and seem to-be unrelated to zonisamide, but the possibility of zonisamide involvement cannot be completely excluded. The two cases of hyperammonemia originated from Japan and both involved adult patients. Both cases were serious and described as life-threatening. […]
Estimates of exposure, based upon retail and mail order prescriptions, indicate that the number of unique patients taking zonisamide capsules in the U.S. is about 37,276 (total prescriptions per year/average number of prescriptions per patient per year less a calculated percentage decrease based on estimated annual dropouts) in the time between approval in 2000 and December 2002. […] Similarly, the incidences of NMS estimated herein are unlikely to be higher than calculated. Based on the exposure data and number of hyperammonemia cases, the incidence of hyperammonemia is calculated to be about […].

[6] = system: cultured mouse spinal cord neurons; conditions: 10-30 μg/mL; cited from earlier work
T-type Ca^2+ currents = conditions: in vitro; cited from earlier work

NC(=O)N1c2ccccc2C=Cc2ccccc21 [carbamazepine]
hyperammonemia as adverse event [1]: known to cause hyperammonemia

CCCC(CCC)C(=O)O [valproate]
hyperammonemia as adverse event [1]: known to cause hyperammonemia
cases of hyperammonemia associated with the drug ([1]; since 1979 (O'Neil et al. 2002)): more than 30 cases

NS(=O)(=O)Cc1noc2ccccc12 [zonisamide, 1,2-benzisoxazole-3-methanesulfonamide]
binding to GABA/benzodiazepine receptor ionophore complex [2]: binds to the GABA/benzodiazepine receptor ionophore complex in an allosteric fashion
carbonic anhydrase inhibition compared to acetazolamide (carbonic anhydrase): 1/50
hepatic enzyme induction (hepatic enzyme): not known to be a hepatic enzyme inducer
dopaminergic and serotonergic neurotransmission [3]: facilitates
time required to achieve steady-state levels [4]: up to two weeks
neuronal or glial uptake of [3H]-GABA (rat hippocampal slices): without affecting
effect on sodium channels (sodium channels): blocks sodium channels
cases fulfilling the criteria of potential hyperammonemia cases [5]: 4 cases
incidence of hyperammonemia [5]: about 1:1,222,453
postsynaptic GABA or glutamate responses [6]: without affecting
synaptically-driven electrical activity [6]: suppresses
effect on voltage-dependent, transient inward currents (T-type Ca2+ currents) (T-type Ca^2+ currents): reduces
